The text below walks through data of patent US20240327364A1, “THERAPEUTIC TARGETING OF GPR68 TO INDUCE FERROPTOSIS” (University Of Maryland, Baltimore, priority 2023, published 2024).

The target in one experiment is T1, ASK1 (Homo sapiens, UniProt Q99683).
T1 construct: purchased DiscoveRx (Fremont, CA)
The experiment can be described thus: KinomeScan. It is filed as binding. As to conditions: read-out: % Control.

The target of another experiment is CHEK1 (Homo sapiens, UniProt O14757). The experiment can be described thus: KinomeScan. Format: binding. As to conditions: read-out: % Control.
For another experiment, the target named is T2, MAP3K2 (Homo sapiens, UniProt Q9Y2U5).
T2 construct: purchased DiscoveRx (Fremont, CA)
The experiment can be described thus: KinomeScan. As to conditions: read-out: % Control. It is filed as binding.

A further experiment has as its target T3, NEK3 (Homo sapiens, UniProt P51956).
T3 construct: purchased DiscoveRx
Kind of experiment: KinomeScan. The following applies: read-out: % Control. Format: binding.

In a further experiment the target is T4, STK33 (Homo sapiens, UniProt Q9BYT3).
T4 construct: purchased DiscoveRx (Fremont, CA)
Kind of experiment: KinomeScan. Format: binding. As to conditions: read-out: % Control.

The target in another experiment is T5, TYRO3 (Homo sapiens, UniProt Q06418).
T5 construct: purchased DiscoveRx
The experiment can be described thus: KinomeScan. Format: binding. As to conditions: read-out: % Control.

The next experiment has as its target T6, YSK4 (Homo sapiens, UniProt Q56UN5).
T6 construct: purchased DiscoveRx
The experiment can be described thus: KinomeScan. The following applies: read-out: % Control. It is filed as binding.

Another experiment has as its target T7, CGRP1 (Homo sapiens, UniProt O60894+Q16602).
T7 construct: host or cells: Chem-1 cells with Gα15
The experiment can be described thus: GPCR Profiler. It is filed as cell-based.

The next experiment deals with T8, MCHR1 (Homo sapiens, UniProt Q99705).
T8 construct: host or cells: Chem-1 cells with promiscuous Gα15
Kind of experiment: GPCR Profiler. It is filed as cell-based. As to conditions: 12.5 uM.

The subject of the next experiment is 158 GPCRs. Kind of experiment: GPCR profiling panel (summary). The following applies: 10 μM. It is filed as cell-based. As for the experimental part:
GPCR profiling assays were performed by Millipore (St. Louis, MO) using in cells expressing Gα15, a promiscuous G protein that enhances GPCR coupling to downstream Ca2+ signaling pathways. KinomeScan was conducted by DiscoveRx (Fremont, CA).
Since GPCRs represent >30% of targets for FDA-approved small molecules and are known to modulate cell migration, activity against 158 GPCRs was assessed based on their chemical structures. GPCRs (158) were tested for agonist and antagonist activity at 10 μM. […] Chemical segregation analysis of zebrafish phenotype was conducted to further identify the inhibitory activity responsible for the zebrafish phenotype. […] The identities of the R groups in Formula A are shown below in Table 5.
To identify the target of OGM1, the molecule was profiled for binding in a panel of 442 kinases (KinomeScan™, DiscoveRx™) and assessed its activity against 158 GPCRs in a single-point assay in Chem-1 cells that uses a promiscuous Gα15 protein to trigger calcium flux (see Table 9 and Table 10, below). […] Table 9. KinomeScan (DiscoverRx) profiling of OGM1.

The subject of another experiment is U138. Kind of experiment: Liperfluo lipid peroxidation. It is filed as cell-based, human. As for the experimental part:
(§1) Cells were plated on a 100 mm cell culture dish (CELLTREAT Scientific Products) in 10 mls of DMEM with high glucose, GlutaMAX, HEPES, Penicillin-Streptomycin (ThermoFisher™) and 10% FBS. Cells were incubated overnight at 37° C. in 5% CO2. Media were then replaced with […] fresh media with DMSO, OGM2, or Erastin (APExBIO Technology™) and the cells incubated for 3 days. On the third day, 3 mL fresh media with 2.5 μM Liperfluo™ (Dojindo Molecular Technologies™, Inc.) resuspended in DMSO was added and cells were incubated at 37° C. in 5% CO2 for 1 hour. Cells were subsequently trypsinized for 5 minutes, pelleted by centrifugation, and resuspended in cell sorting media (1% BSA and 1 mM EDTA in PBS pH 7.4). Ten thousand events were recorded on a BD LSR II and the data processed using the FlowJo™ software.
(§2) Where appropriate, ANOVA, or student's T-test were conducted in PRISM. Chi squared T(X) was used for Liperfluo analysis. A value T(X)>4 implies that the two distributions are different with a p<0.01 (99% confidence). For drug interaction and therapeutic interaction, the coefficient of drug interaction (CDI) was calculated as follows: CDI=AB/(A×B). According to the impact of each group, AB is the value of combined treatment and A or B is the value of the single agent group to control group.

The next experiment relates to U87. Kind of experiment: Liperfluo lipid peroxidation. Format: cell-based, human. The following applies: OGM2 and 2Gy ionizing radiation. As for the experimental part:
as §1, §2

Another experiment has as its system Panc02. Kind of experiment: Cell cycle analysis (propidium iodide flow cytometry). Format: cell-based, mouse. The following applies: 3 Gy radiation in combination with OGM. As for the experimental part: as §2
Both radiation and ferroptosis are known to induce G2/M arrest. Therefore, cells were treated with OGM2 and/or 3 Gy radiation. Media was then replaced, and cells were maintained for 24 hours. Cells were then trypsinized, pelleted, and fixed overnight in 70% Methanol at 4° C. Samples were then washed twice with cold PBS before being incubated with 10 mg/ml RNase A and 500 μg/ml propidium iodide in PBS in the dark for 30 minutes at room temperature. Cell cycle progression was determined by Flow cytometry using a LSR II from BD. FIG. 96A presents a cell cycle analysis of OGM2 treatment and irradiated Panc02 cells.

T7 sequence (Q16602 23-461): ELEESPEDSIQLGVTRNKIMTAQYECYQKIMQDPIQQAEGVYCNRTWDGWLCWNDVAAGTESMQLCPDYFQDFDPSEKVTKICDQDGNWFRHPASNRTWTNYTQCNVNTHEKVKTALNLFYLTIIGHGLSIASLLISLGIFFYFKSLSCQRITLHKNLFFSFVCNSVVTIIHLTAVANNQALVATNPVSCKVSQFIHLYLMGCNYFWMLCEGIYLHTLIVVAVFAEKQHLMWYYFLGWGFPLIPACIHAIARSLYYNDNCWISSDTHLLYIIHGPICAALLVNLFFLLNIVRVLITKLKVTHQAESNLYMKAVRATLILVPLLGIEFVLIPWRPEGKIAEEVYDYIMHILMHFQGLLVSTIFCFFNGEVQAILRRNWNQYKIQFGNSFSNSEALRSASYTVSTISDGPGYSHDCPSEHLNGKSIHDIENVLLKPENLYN
T7 sequence (O60894 27-148 partner): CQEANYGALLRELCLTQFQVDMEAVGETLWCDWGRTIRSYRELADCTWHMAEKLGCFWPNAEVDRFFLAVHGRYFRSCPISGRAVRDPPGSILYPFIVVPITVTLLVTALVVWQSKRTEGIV
T4 sequence (Q9BYT3 whole entry): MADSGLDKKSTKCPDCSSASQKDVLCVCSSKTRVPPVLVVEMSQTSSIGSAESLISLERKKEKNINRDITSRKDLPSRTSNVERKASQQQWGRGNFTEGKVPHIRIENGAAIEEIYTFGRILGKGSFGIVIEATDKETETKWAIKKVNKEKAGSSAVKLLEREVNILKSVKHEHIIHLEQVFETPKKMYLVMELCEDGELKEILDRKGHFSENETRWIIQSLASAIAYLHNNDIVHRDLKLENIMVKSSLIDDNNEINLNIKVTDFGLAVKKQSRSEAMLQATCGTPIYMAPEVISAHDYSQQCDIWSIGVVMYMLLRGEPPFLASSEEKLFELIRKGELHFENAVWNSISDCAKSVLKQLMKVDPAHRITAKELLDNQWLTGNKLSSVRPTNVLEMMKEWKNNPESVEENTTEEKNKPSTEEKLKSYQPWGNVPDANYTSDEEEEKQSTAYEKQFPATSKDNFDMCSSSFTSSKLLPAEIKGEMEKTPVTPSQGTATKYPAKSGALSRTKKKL
T6 sequence (Q56UN5 whole entry): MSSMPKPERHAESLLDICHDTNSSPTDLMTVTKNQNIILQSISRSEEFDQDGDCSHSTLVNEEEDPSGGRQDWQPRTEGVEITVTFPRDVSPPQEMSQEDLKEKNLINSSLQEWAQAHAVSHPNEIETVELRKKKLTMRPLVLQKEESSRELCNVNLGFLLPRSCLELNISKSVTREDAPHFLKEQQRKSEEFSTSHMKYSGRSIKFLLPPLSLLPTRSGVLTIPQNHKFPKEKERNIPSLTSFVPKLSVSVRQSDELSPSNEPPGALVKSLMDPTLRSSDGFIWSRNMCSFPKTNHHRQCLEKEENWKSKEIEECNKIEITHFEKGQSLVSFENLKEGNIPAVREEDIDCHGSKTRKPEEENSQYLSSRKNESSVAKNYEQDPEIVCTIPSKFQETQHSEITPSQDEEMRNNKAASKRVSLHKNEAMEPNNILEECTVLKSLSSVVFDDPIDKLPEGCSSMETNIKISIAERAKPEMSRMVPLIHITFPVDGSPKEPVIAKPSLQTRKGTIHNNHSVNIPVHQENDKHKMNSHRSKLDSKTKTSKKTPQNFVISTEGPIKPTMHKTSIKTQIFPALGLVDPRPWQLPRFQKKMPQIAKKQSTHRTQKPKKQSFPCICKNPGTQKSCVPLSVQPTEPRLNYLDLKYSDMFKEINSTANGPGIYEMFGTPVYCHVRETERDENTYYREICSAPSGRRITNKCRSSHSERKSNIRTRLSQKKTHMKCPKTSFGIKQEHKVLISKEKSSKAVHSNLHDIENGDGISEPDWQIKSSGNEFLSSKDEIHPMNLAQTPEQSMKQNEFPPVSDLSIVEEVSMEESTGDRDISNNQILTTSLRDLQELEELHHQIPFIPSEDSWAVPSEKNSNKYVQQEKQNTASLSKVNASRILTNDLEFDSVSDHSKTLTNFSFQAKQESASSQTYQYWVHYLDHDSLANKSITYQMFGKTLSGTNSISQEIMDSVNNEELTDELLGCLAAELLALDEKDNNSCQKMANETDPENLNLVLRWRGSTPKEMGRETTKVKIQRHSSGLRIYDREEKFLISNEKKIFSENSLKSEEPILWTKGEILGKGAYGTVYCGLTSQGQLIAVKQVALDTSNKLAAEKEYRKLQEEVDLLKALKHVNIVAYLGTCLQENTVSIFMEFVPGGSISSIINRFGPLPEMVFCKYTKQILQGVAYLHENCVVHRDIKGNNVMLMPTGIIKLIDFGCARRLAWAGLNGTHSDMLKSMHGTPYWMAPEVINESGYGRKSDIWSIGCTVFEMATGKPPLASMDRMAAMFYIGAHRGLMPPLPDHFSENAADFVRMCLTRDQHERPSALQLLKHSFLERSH
T8 sequence (Q99705 whole entry, species assumed): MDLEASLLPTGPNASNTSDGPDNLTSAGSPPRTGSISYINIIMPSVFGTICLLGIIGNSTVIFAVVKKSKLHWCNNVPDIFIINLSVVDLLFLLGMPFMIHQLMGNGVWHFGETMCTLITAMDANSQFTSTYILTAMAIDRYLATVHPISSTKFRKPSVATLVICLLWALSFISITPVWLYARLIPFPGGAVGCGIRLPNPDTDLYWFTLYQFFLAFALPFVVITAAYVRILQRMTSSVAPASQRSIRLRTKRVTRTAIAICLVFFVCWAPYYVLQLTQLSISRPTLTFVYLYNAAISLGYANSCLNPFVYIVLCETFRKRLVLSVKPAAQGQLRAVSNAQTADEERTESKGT
CHEK1, sequence (O14757 whole entry): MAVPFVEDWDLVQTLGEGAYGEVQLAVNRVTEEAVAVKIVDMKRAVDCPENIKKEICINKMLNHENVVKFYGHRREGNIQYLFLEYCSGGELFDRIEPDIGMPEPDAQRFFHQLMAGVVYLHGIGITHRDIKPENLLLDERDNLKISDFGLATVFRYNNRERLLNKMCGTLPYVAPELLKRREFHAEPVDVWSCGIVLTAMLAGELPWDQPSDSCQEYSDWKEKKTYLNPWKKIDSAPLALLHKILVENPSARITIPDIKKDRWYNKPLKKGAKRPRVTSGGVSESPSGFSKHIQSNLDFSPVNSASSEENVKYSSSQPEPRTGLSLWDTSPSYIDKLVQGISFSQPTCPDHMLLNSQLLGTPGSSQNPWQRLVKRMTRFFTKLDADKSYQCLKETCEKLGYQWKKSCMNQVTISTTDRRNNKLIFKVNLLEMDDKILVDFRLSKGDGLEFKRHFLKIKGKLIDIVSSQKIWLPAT
T2 sequence (Q9Y2U5 whole entry): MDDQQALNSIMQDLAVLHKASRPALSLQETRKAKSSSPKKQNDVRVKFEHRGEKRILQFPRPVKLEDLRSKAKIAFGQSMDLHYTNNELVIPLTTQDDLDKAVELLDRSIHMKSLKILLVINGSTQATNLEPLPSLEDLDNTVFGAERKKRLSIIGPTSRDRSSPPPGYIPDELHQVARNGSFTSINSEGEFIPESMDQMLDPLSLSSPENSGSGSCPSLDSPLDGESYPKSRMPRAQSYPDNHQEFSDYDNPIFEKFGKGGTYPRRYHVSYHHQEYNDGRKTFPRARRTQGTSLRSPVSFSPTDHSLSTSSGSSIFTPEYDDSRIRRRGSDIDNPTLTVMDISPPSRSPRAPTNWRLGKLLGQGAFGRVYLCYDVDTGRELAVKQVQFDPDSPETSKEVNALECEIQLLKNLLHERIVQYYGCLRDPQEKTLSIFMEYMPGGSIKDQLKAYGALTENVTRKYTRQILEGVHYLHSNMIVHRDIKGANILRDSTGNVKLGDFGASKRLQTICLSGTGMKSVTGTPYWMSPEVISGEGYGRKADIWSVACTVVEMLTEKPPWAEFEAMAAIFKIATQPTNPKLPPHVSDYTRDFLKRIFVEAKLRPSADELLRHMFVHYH
T3 sequence (P51956 whole entry): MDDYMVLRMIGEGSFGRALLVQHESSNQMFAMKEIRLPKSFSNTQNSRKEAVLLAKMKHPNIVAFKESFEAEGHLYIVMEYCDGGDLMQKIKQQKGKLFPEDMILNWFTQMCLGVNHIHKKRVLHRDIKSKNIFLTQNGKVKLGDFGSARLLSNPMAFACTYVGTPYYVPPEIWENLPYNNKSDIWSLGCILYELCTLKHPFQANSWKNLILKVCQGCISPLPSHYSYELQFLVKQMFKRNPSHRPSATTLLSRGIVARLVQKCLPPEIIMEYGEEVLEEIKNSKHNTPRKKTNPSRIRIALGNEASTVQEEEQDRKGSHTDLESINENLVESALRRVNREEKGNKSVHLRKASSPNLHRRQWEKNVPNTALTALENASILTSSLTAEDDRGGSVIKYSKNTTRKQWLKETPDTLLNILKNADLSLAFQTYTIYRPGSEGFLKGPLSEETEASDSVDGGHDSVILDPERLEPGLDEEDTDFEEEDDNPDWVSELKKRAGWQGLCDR

For the molecule `CCc1ccc2c(c1)C1(NN=C(c3cccc4ccccc34)S1)C(=O)N2` (centres unmarked) [OGM1, 5-ethyl-5′-naphthalen-1-ylspiro[1H-indole-3,2′-3H-1,3,4-thiadiazole]-2-one], the remaining binding at 10 µM on ASK1 turned out to be 100%; on CHEK1, 100%; at MAP3K2, 92%; on NEK3 it was 71%; on STK33 it was 91%; on TYRO3, 100%. Moreover, the remaining binding at 10 µM at YSK4 stood at 100%. Further, the Antagonism on CGRP1 (10 uM) is −2.3. Besides, the Agonism is 0.5 on CGRP1 (12.5 uM) and −0.4 at MCHR1. Moreover, in the experiment with 158 GPCRs, the GPCRs significantly inhibited entry was “significantly inhibited only the lysophosphatidic acid receptor 1 (LPAR1), and extracellular proton-sensing GPR68/OGR1”.

On to `CCc1ccc2c(c1)C1(NN=C(c3ccccc3)S1)C(=O)N2` (centres unmarked) [OGM2], for which the “Chi-squared T(X), lipid peroxidation” value is 273 in the experiment with U138 (2 μM) and 592 in the experiment on U138 (10 μM). For the same molecule, the “CDI, lipid peroxidation” value is recorded as less than 0.006 in the experiment on U138 (OGM2 and 2Gy ionizing radiation); less than 0.06 with U87. Besides, the “coefficient of drug interaction (CDI), G2 phase fraction” value in the experiment with Panc02 is 0.689. In addition, the “increase in the G2 phase fraction” value with Panc02 is listed as 120%.
